Source: ChEMBL document CHEMBL1201862, “PubChem BioAssay data set” (2004)
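A five-concentration, 48-hour dose response in 96-well plates underlies each endpoint, interpolated linearly between surrounding concentrations. At the GI50, growth is halved.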 Calls of active or inactive are those of the source. Cut-off read from the data, not from the text of the source: active = GI50 up to about 1.1 µM and inactive = higher.

How the values were obtained:
Test in all cases: growth of human tumour cells (NCI), 48 h
MCF7 = system: MCF7
UACC-257 = system: UACC-257
RPMI-8226 = system: RPMI-8226
LOX IMVI = system: LOX IMVI
SK-MEL-5 = system: SK-MEL-5
HCC 2998 = system: HCC 2998
OVCAR-4 = system: OVCAR-4
NCI-H23 = system: NCI-H23
SN12C = system: SN12C
NCI-H522 = system: NCI-H522
HL-60 = system: HL-60
SNB-75 = system: SNB-75
NCI/ADR-RES = system: NCI/ADR-RES
NCI-H460 = system: NCI-H460
SNB-19 = system: SNB-19
SK-OV-3 = system: SK-OV-3
HOP-62 = system: HOP-62
A549 = system: A549
OVCAR-5 = system: OVCAR-5
SF-539 = system: SF-539

Measured: GI50

Fc1ccc(C(OCCN2CCN(CCCc3ccccc3)CC2)c2ccc(F)cc2)cc1
inactive: MCF7 4.59 µM | UACC-257 2.81 µM | RPMI-8226 2.58 µM | LOX IMVI 4.65 µM | SK-MEL-5 3.34 µM | HCC 2998 3.79 µM | OVCAR-4 4.15 µM | NCI-H23 4.04 µM | SN12C 4.11 µM | NCI-H522 3.48 µM | HL-60 4.2 µM | SNB-75 4.8 µM | NCI/ADR-RES 3.13 µM | NCI-H460 4.34 µM | SNB-19 3.99 µM | SK-OV-3 6.04 µM | HOP-62 5.32 µM | A549 3.58 µM | OVCAR-5 4.5 µM

O=C(CC1=NCCN1)c1ccccc1
inactive: MCF7 > 750 µM | UACC-257 > 750 µM | RPMI-8226 > 750 µM | LOX IMVI > 750 µM | SK-MEL-5 > 750 µM | HCC 2998 > 750 µM | OVCAR-4 > 750 µM | NCI-H23 > 750 µM | SN12C > 750 µM | NCI-H522 > 750 µM | HL-60 455 µM | SNB-75 > 735 µM | NCI/ADR-RES > 750 µM | NCI-H460 > 511 µM | SNB-19 > 750 µM | SK-OV-3 > 750 µM | SF-539 > 750 µM | HOP-62 > 605 µM | A549 > 213 µM | OVCAR-5 > 750 µM

CC(C)(C)OC(=O)NC(Cc1ccccc1)C(=O)N[C@H]1c2ccsc2/C(=N/O)[C@H]1O (stereo partly drawn)
inactive: MCF7 > 100 µM | UACC-257 > 100 µM | LOX IMVI > 100 µM | SK-MEL-5 > 100 µM | HCC 2998 > 100 µM | OVCAR-4 35.2 µM | NCI-H23 > 100 µM | SN12C > 100 µM | HL-60 86.1 µM | NCI/ADR-RES > 100 µM | NCI-H460 > 100 µM | SNB-19 > 100 µM | SK-OV-3 > 100 µM | SF-539 > 100 µM | HOP-62 > 100 µM | A549 > 100 µM | OVCAR-5 > 100 µM

COc1ccc(/C(Cl)=C(\C=O)c2ccc(OC)c(OC)c2)cc1
inactive: RPMI-8226 16.5 µM | LOX IMVI 23.3 µM | SK-MEL-5 39.2 µM | NCI-H23 21.5 µM | SN12C 81.8 µM | NCI-H522 9.35 µM | HL-60 8.85 µM | SNB-75 21.7 µM | NCI-H460 35.2 µM | SNB-19 41.1 µM | SK-OV-3 62.4 µM | SF-539 23.8 µM
